Literature values as cited in patent publication US4351830A (priority 1980, dated 1982).

Columns and labels:
[1] = literature
bacterial infections = conditions: literature

Compound | adjuvant effect [1] | protective activity against bacterial infections (bacterial infections)
CC(=O)N[C@H]1C(O)O[C@H](CO)[C@@H](O)[C@@H]1O[C@H](C)C(=O)N[C@@H](C)C(=O)N[C@H](CCC(N)=O)C(=O)O (stereo partly drawn) [N-acetylmuramyl-L-alanyl-D-glutamine] | high adjuvant effect | –
CC(=O)N[C@H]1C(O)O[C@H](CO)[C@@H](O)[C@@H]1O[C@H](C)C(=O)N[C@@H](C)C(=O)N[C@H](CCC(=O)O)C(N)=O (stereo partly drawn) [N-acetylmuramyl-L-alanyl-D-isoglutamine] | high adjuvant effect | –
orthobenzoic acid oxide | – | exhibits a protective activity against bacterial infections
